Data published in ChEMBL document CHEMBL1139118, “A novel, non-substrate-based series of glycine type 1 transporter inhibitors derived from high-throughput screening” (Bioorg Med Chem Lett, 2007).

What was measured:
[1] = target: CYP2D6 (Homo sapiens, UniProt P10635); test: Inhibition of human recombinant CYP2D6 at 1.5 uM; format: ADME
[2] = target: Voltage-gated inwardly rectifying potassium channel KCNH2 (Homo sapiens, UniProt Q12809); test: Displacement of [3H]dofetilide from human ERG channel expressed in HEK293 cells
Sequence of Voltage-gated inwardly rectifying potassium channel KCNH2 (Q12809 whole entry): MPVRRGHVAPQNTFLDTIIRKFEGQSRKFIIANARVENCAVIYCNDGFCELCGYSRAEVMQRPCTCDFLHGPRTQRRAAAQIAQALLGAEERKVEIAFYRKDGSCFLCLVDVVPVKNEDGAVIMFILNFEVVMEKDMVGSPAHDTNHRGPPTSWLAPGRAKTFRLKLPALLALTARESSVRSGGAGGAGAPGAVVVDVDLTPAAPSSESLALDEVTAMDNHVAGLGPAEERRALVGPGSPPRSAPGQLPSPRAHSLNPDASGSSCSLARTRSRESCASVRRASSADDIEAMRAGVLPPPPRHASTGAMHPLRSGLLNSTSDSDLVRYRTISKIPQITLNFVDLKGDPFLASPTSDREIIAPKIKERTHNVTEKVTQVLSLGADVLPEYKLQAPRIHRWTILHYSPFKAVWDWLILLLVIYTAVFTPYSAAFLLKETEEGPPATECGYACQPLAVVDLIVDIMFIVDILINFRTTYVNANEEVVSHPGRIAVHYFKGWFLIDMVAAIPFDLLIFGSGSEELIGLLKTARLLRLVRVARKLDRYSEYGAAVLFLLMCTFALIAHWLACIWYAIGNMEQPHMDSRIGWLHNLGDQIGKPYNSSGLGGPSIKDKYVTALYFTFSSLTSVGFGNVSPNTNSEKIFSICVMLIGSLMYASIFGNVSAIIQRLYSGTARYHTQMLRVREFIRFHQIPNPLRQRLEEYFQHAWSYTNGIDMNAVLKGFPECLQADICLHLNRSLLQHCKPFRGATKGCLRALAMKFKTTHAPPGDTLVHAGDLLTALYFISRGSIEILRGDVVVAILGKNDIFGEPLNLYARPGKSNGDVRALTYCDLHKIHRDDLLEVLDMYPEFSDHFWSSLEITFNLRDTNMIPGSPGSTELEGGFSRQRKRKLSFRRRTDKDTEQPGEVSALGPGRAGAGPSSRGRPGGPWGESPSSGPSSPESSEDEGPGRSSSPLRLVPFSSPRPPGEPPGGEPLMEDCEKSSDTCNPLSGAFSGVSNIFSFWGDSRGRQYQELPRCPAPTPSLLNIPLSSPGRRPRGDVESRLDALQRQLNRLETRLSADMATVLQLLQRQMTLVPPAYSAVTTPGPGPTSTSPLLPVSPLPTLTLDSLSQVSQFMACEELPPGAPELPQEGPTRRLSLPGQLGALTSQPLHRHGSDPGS

[3] = target: T1, Sodium- and chloride-dependent glycine transporter 1 (Homo sapiens, UniProt P48067); test: Displacement of [3H]NPTS from human GlyT1C expressed in HEK293 cells; format: cell-based
T1 sequence (P48067 whole entry): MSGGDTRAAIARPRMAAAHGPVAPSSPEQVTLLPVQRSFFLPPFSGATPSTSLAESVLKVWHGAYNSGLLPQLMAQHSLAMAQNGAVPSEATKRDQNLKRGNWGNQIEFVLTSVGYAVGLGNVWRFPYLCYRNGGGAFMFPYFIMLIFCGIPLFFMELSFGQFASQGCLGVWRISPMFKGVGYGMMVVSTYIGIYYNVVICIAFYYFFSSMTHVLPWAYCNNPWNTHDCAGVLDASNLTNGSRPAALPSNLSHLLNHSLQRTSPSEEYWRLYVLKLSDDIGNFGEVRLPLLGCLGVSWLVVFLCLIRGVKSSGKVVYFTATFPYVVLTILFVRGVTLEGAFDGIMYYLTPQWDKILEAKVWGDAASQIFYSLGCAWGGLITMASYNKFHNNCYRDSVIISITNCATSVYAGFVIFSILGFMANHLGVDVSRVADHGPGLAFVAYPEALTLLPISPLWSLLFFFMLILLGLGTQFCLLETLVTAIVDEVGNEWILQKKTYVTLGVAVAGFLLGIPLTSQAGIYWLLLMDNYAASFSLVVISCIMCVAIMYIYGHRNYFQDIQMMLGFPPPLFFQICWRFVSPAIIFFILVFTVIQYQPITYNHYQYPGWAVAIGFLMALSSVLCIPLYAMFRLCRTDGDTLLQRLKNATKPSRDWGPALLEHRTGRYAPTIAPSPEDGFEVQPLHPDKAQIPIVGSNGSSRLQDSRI

[4] = target: 5-hydroxytryptamine receptor 1B (Homo sapiens, UniProt P28222); test: Displacement of [3H]5-hydroxytrytamine from human 5HT1B receptor expressed in HEK293 cells; format: cell-based
Sequence of 5-hydroxytryptamine receptor 1B (P28222 whole entry): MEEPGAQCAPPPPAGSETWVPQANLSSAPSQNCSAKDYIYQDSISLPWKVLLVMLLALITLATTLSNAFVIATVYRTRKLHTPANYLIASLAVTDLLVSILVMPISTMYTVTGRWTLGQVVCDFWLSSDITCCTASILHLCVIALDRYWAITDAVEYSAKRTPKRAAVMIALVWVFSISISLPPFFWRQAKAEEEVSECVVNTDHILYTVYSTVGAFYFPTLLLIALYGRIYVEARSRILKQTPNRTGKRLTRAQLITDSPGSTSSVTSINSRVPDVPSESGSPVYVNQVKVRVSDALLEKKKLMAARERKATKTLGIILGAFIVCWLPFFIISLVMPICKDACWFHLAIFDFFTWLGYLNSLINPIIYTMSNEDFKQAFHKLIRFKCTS

[5] = Metabolic stability in human liver microsomes assessed as half life; format: ADME, Microsome
[6] = target: T2, Sodium- and chloride-dependent glycine transporter 2 (Homo sapiens, UniProt Q9Y345); test: Inhibition of [3H]glycine uptake at human GlyT2 expressed in HEK293 cells; format: cell-based
T2 sequence (Q9Y345 whole entry): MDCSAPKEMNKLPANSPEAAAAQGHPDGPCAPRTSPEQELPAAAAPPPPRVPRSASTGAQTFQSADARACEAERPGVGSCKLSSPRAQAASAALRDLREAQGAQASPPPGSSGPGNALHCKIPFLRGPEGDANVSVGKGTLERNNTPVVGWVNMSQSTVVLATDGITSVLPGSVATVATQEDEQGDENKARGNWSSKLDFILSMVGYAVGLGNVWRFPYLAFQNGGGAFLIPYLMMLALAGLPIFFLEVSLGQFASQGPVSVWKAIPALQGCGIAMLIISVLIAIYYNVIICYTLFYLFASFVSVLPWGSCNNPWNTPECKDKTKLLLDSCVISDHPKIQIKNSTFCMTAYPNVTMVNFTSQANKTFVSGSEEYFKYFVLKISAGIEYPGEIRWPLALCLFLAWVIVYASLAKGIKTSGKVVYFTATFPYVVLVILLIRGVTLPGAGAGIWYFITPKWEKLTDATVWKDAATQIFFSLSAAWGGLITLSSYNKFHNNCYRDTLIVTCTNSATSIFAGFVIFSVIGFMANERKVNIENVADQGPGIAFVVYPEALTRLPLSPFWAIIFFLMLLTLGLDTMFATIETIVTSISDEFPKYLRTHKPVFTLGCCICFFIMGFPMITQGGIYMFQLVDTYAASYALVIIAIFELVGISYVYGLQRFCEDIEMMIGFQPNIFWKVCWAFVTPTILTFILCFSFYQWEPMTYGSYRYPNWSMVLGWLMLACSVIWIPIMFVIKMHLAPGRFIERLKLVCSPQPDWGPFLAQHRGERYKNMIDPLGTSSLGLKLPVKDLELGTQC

Sequence of CYP2D6 (P10635 whole entry): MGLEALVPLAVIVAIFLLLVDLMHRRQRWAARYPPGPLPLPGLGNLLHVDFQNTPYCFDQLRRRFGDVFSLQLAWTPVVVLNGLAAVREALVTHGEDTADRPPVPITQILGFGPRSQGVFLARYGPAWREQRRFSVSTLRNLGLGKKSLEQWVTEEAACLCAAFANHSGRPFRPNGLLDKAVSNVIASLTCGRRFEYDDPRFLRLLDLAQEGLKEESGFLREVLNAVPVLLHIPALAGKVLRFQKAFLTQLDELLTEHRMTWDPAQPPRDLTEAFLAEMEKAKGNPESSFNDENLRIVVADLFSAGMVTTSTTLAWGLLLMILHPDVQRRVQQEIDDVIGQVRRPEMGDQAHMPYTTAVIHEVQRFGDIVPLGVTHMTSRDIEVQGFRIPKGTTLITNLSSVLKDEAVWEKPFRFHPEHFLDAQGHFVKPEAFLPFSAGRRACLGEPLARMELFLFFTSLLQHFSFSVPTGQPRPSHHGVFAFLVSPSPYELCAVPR

Compound | inhibition at 1.5 µM [1] [%] | Ki [3] [µM] | Ki [4] [µM] | half-life [5] [min] | IC50 [6] [µM] | IC50 [3] [µM] | Ki [2] [µM]
OCC1CCCN(CCCC2CCCc3ccc(OCc4ccc(-c5ccccc5F)cn4)cc32)C1 (configuration not stated) | 30 | 0.011 |  | 24 | 0.401 |  | 0.41
CCN(Cc1cccc(OCc2noc(-c3ccccc3F)n2)c1)C1CCN(C2CC(C)C(C)C2)C1 (configuration not stated) | 84 | 0.0853 |  | 26 | 0.857 |  | 0.222
CN1CCN(c2cccc3ccc(OCc4noc(-c5ccc(Cl)cc5)n4)cc23)CC1 | 75 | 0.5 | < 0.001 | 22 |  |  | 
OCC1CCCN(CCCC2CCCc3ccc(OCc4noc(-c5ccccc5F)n4)cc32)C1 (configuration not stated) | 43 | 0.0102 |  | 17 | 0.385 |  | 1.3
OCC1CCCN(CCCC2CCCc3ccc(OCc4noc(-c5ccc(Cl)cc5)n4)cc32)C1 (stereo in doubt; 8) | 96 | 0.0159 | > 1 | 22 | 0.319 |  | 0.271
OCC1CCCN(CCCC2CCCc3ccc(OCc4noc(-c5ccc(Cl)cc5)n4)cc32)C1 (stereo in doubt; 8A) |  |  |  |  |  | 0.038 | 0.381
OCC1CCCN(CCCC2CCCc3ccc(OCc4noc(-c5ccc(Cl)cc5)n4)cc32)C1 (stereo in doubt; 8B) |  |  |  |  |  | 0.024 | 0.214

The next lines start with results.

inhibition at 1.5 µM [1] [%] | Ki [3] [µM] | Ki [4] [µM] | half-life [5] [min] | IC50 [6] [µM] | IC50 [3] [µM] | Compound | Ki [2] [µM]
43 | 0.394 | 0.031 | 13 |  |  | CC(C)N1CCN(C2CCc3ccc(OCc4noc(-c5ccc(Cl)cc5)n4)cc32)CC1 (configuration not stated) | 0.0981
29 | 0.134 | 0.414 | 7 |  |  | CC1CC(N2CCN(C3CCc4ccc(OCc5noc(-c6ccc(Cl)cc6)n5)cc43)CC2)CC1C (configuration not stated) | 
85 | 0.0614 |  | 14 | 0.0315 |  | OCC1(N2CCN(C3CCc4ccc(OCc5noc(-c6ccccc6F)n5)cc43)CC2)CCCC1 (configuration not stated) | 
47 |  | 1.49 |  |  |  | OCC1(N2CCN(C3CCc4ccc(OCc5noc(-c6ccc(Cl)cc6)n5)cc43)CC2)CCCC1 (configuration not stated) | 
94 | 0.0668 |  | 12 | 0.531 |  | Fc1ccccc1-c1nc(COc2ccc3c(c2)C(N2CCN(C4CCCC4)CC2)CC3)no1 (configuration not stated) | 
70 | 0.108 | > 0.3 | 12 |  |  | OCC1(NCCCC2CCc3ccc(OCc4noc(-c5ccc(Cl)cc5)n4)cc32)CCCC1 (configuration not stated) | 0.525
 |  |  |  |  | 0.031 | OCC1CCCN(CCCC2CCCc3ccc(OCc4noc(-c5ccc(Cl)cc5)n4)cc32)C1 (stereo in doubt; 8C) | 0.219
 |  |  |  |  | 0.026 | OCC1CCCN(CCCC2CCCc3ccc(OCc4noc(-c5ccc(Cl)cc5)n4)cc32)C1 (stereo in doubt; 8D) | 0.206
